Results taken from article PMC11881906, “Development of xanthone derivatives as effective broad-spectrum antimicrobials: Disrupting cell wall and inhibiting DNA synthesis” (Science Advances, 2025).

How the values were obtained:
[1] = system: E. coli ATCC 25922; assay: RNA-seq transcriptome response; type: cell-based, Escherichia coli; details: 4× MIC, 2 hours
Method: After exposure, 1-ml aliquots of cells were immediately pelleted at 4°C by centrifugation for 2 min at 2000 rpm. The supernatants were removed and immediately frozen in liquid nitrogen. The samples were stored at −80°C for later total RNA isolation. Total RNA was extracted using the bacterial RNA kit (Omega Bio-Tek, USA) according to the manufacturer’s instructions. The RNA integrity number values were obtained to assess RNA quality using an Agilent Genomics 2200 Tape Station instrument.
A total amount of 2 to 5 ng of the RNA per sample was executed as the input material to construct each cDNA library for RNA-seq using the NEBNext Ultra Directional RNA Library prep kit from Illumina. The quality of the resulting libraries was checked using Agilent High Sensitivity DNA chips to ensure proper library size distribution and the absence of small adapters.
Read mapping was aligned using Bowtie2 ([74]). HTSeq v0.6.1 was used for quantification of expression levels ([75]). DESeq2 on the R package (v1.12.4) was used to calculate DEGs. Differential expression was computed using edgeR: exactTest for each treatment versus the untreated control ([76]). The E. coli database used for mapping was GCF_017357505.1_ASM1735750v1_genomic.fna. Both the GO and KEGG (KEGG Ortholog database) enrichment analyses were done with the Fisher’s exact test. All P values were adjusted with the Benjamini-Hochberg procedure to generate false discovery rates (adjusted P values). GO enrichment analysis was carried out using the clusterProfiler package on the R platform ([77]). KEGG pathway mapping and figure generation were performed with the PathView website ([78]). COG of protein databases were searched with an E value of 1e^-5. For hierarchal clustering analysis of gene expression, the gene expression levels were normalized to z scores of log10 (FPKM + 1), where FPKM is fragments per kilobase per million. For hierarchal clustering analysis of the regulation of transcription factors, the unweighted pair group method with arithmetic mean (UPGMA) method was used as the clustering method. […] Volcano plots were generated by plot_volcano from soothsayer (https://github.com/jolespin/soothsayer) in Python v.3.6.6. Directed networks were constructed and plotted using NetworkX and Matplotlib Python packages, respectively. Hierarchical clustering analysis and heatmap calculation were performed with the pheatmap package on the R platform. The umap package on the R platform was used for uniform manifold approximation and projection (UMAP) analysis of FPKM vectors of each transcriptome. The figures were created via the ggplot2 package ([79]).

[2] = system: E. coli DNA; assay: Electrophoretic mobility shift assay; type: binding, Escherichia coli; details: 8× MIC
Method: Isolation of DNA from pure culture of E. coli ATCC 25922 was carried out by the TIANamp bacterial DNA kit (TIANGEN, China) according to the manufacturer’s instructions. […] A loading buffer containing 10 mM TE (pH 7.5), 0.03% bromophenol blue, 0.03% xylene cyanol FF, 60% glycerol, and 60 mM EDTA was added in the sample following incubation for 30 min at 37°C. The electrophoresis was then performed at 100 V for 2 hours in 1× tris-acetate-EDTA buffer solution [0.04 M tris-acetate (pH 8.0) and 0.001 M EDTA] using a 1% (w/v) agarose gel. The bands were visualized using the ChemiDoc imaging system with ultraviolet light. All of the experiments were repeated at least twice with duplicates each time.

[3] = system: P. aeruginosa ATCC 9027; assay: Murine corneal infection model; type: in vivo, mice; details: topical, 2 days; XT17 5 mg/ml, gatifloxacin 3 mg/ml; vs 5% glucose control
Excerpt: (§1) Female C57BL/6 mice (average weight, 20 g) were used for the in vivo efficacy experiments. Mice were housed in a specific pathogen–free facility on a 12-hour light-dark cycle, under the condition with ad libitum access to irradiation sterilized rodent diet and aseptic water. […]. These in vivo experiments were approved by the Experimental Animal Center of South China Agricultural University and conducted in accordance with the policies of the Ministry of Health of China.
(§2) The in vivo efficacy of compound XT17 was investigated in a murine corneal infection model. Before infection, the mice were immunosuppressed with three intraperitoneal injections of cyclophosphamide (100 mg/kg) over 5 days. After anesthesia with 2.5% avertin (500 mg/kg, ip), the left corneas of mice were scratched with 15 μl of S. aureus ATCC 29213 or P. aeruginosa ATCC 9027 (approximately 5 × 10^7 CFU/ml). Following 1 day of infection, the infected mice were randomly assigned into […] (n = 5) and subsequently administered with 0.5% compound XT17, 5% glucose solution, 5% vancomycin, or 0.3% gatifloxacin topically. S. aureus–caused murine corneal infections were treated four times a day for three consecutive days. Only 2 days of treatment were given for P. aeruginosa–caused murine corneal infections. On the first day, the drug was administered every 20 min for 1 hour and then three times at 2-hour intervals on the second day. The mice were given a 5% glucose solution as a negative control in the absence of any antimicrobial agent treatment. The infected corneas were collected after the mice were euthanized, and the number of viable bacteria was counted using MHA plates.

[4] = system: S. aureus ATCC 29213; assay: Murine corneal infection model; type: in vivo, mice; details: topical, four times daily for 3 days; XT17 5 mg/ml, vancomycin 50 mg/ml; vs 5% glucose control
Excerpt: as §1, §2

[5] = system: S. aureus ATCC 29213; assay: SYTOX Green uptake assay; type: cell-based, Staphylococcus aureus; details: up to 8× MIC
Method: The SYTOX Green uptake was measured to explore the inner membrane permeability. The overnight bacteria culture was centrifuged and resuspended in sterile PBS to obtain an OD600 of 0.2. SYTOX Green dye was added to a final concentration of 0.3 μM and incubated for 20 min without being exposed to the light. Fluorescence was measured at excitation and emission wavelengths of 504 and 523 nm, respectively. […] The changes in fluorescence intensity were continuously monitored for 1 hour. All measurements were repeated three times with duplicates each time.

CC(C)=CCOc1cc(OCCCNC(=N)N)cc2oc3cc(OCCCNC(=N)N)ccc3c(=O)c12 [XT17]
genes expressed [1]: 4617 genes | Log2FC clbN (colibactin non-ribosomal peptide synthetase ClbN) ([1]; vs untreated): -2.7305 | Log2FC cspE (transcription antiterminator/RNA stability regulator CspE) ([1]; vs untreated): -4.5456 | Log2FC dnaE (DNA polymerase III subunit alpha) ([1]; vs untreated): 2.4033 | Log2FC dnaN (DNA polymerase III subunit beta) ([1]; vs untreated): 2.4370 | Log2FC dnaQ (DNA polymerase III subunit epsilon) ([1]; vs untreated): 2.6769 | Log2FC dnaT (primosomal protein DnaT) ([1]; vs untreated): 1.8873 | Log2FC dnaX (DNA polymerase III subunit gamma/tau) ([1]; vs untreated): 1.3272 | Log2FC gyrA (DNA topoisomerase (ATP-hydrolyzing) subunit A) ([1]; vs untreated): 2.7733 | Log2FC gyrB (DNA topoisomerase (ATP-hydrolyzing) subunit B) ([1]; vs untreated): 2.8529 | Log2FC holB (DNA polymerase III subunit delta') ([1]; vs untreated): 3.5242 | Log2FC holC (DNA polymerase III subunit chi) ([1]; vs untreated): 1.8432 | Log2FC holD (DNA polymerase III subunit psi) ([1]; vs untreated): 2.6144 | Log2FC parC (DNA topoisomerase IV subunit A) ([1]; vs untreated): 2.5193 | Log2FC parE (DNA topoisomerase IV subunit B) ([1]; vs untreated): 2.3205 | Log2FC priA (primosomal protein N') ([1]; vs untreated): 3.3285 | Log2FC priB (primosomal replication protein N) ([1]; vs untreated): 5.8981 | Log2FC priC (primosomal replication protein N'') ([1]; vs untreated): 2.6334 | Log2FC recA (recombinase RecA) ([1]; vs untreated): 5.7854 | Log2FC recB (exodeoxyribonuclease V subunit beta) ([1]; vs untreated): 2.0328 | Log2FC recC (exodeoxyribonuclease V subunit gamma) ([1]; vs untreated): 2.4556 | Log2FC recF (DNA replication/repair protein RecF) ([1]; vs untreated): 1.6106 | Log2FC recG (ATP-dependent DNA helicase RecG) ([1]; vs untreated): 1.6673 | Log2FC recJ (single-stranded-DNA-specific exonuclease RecJ) ([1]; vs untreated): 4.2947 | Log2FC recO (DNA repair protein RecO) ([1]; vs untreated): 2.8669 | Log2FC recR (recombination mediator RecR) ([1]; vs untreated): 2.2758 | Log2FC ruvA (Holliday junction branch migration protein RuvA) ([1]; vs untreated): 3.9191 | Log2FC ruvB (Holliday junction branch migration DNA helicase RuvB) ([1]; vs untreated): 4.1938 | Log2FC ruvC (crossover junction endodeoxyribonuclease RuvC) ([1]; vs untreated): 2.7878 | Log2FC ssb1 (single-stranded DNA-binding protein SSB1) ([1]; vs untreated): 3.2652 | down-regulated genes ([1]; vs untreated): 348 genes | up-regulated genes ([1]; vs untreated): 2885 genes | differentially expressed genes ([1]; vs untreated, P < 0.05, absolute log2 fold change > 1): 3233 genes | interaction with E. coli DNA (gel mobility shift) [2]: able to directly interact with the E. coli DNA | log reduction in viable bacterial colonies in the infected corneas [3]: 2.88 log | log reduction in viable bacterial colonies in the infected corneas [4]: 6.10 log | SYTOX Green fluorescence intensity (cytoplasmic membrane permeabilization) [5]: did not show a notable increase
